Laboratory results: article PMC9650428, “Mutagenesis and functional analysis of SotB: A multidrug transporter of the major facilitator superfamily from Escherichia coli” (Frontiers in Microbiology, 2022)
Positions count from the first letter of the chain named. Read-outs that look alike come from different tables or passages of the source.

What was measured:
MdfA = target: MdfA; parameters: method as in Heng et al., 2015; details: ref Heng et al., 2015; read-out: Binding affinity between MdfA and the substrate; cited from earlier work
SotB [1] = target: T1, SotB (Escherichia coli, UniProt P31122); assay: SPR affinity assay, wild-type SotB; type: binding
T1 construct: The full-length sotB and lapC genes from the E. coli MG1655 genome were subcloned into the cloning vector pET28a; 8xHis (C); made in house; host or cells: E. coli C43(DE3)
T1 sequence (P31122 whole entry): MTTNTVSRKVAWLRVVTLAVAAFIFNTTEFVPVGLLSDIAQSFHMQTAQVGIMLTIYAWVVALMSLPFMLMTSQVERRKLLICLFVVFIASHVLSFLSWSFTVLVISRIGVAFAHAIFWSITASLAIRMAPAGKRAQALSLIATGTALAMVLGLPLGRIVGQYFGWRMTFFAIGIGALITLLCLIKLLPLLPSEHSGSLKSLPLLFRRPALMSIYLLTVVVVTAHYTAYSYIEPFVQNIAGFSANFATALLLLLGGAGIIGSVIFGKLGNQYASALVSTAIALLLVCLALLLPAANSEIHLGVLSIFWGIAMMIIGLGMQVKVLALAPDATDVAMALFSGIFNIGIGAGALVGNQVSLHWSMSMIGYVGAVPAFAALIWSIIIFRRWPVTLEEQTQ
Protocol: (§1) The instrument used in surface plasmon resonance (SPR) affinity assays was OpenSPR (Nicoya, Canada) and the chip used was COOH sensor chip (Nicoya, Canada). SotB and its variants were as ligands. IPTG, L-arabinose, D-xylose, D-glucose, D-fructose, and D-mannose were as small molecules. Using HSB-EP buffer (10 mM HEPES, 150 mM NaCl, 3 mM EDTA, 0.005% Tween-20, pH7.4) as test buffer and setting flow rate 150 μl/min after installed COOH chip according to OpenSPRTM instrument standard operating procedure. After the signal baseline was reached, loading 200 μl 80% isopropyl alcohol and ran for 10 s to drain bubbles. After reaching baseline, the sample ring was rinsed with HSB-EP buffer and emptied with air. After the signal reached the baseline, loading 200 μl EDC (400 mM, Sigma)/NHS (100 mM, Sigma; 1:1) solution with a flow rate 20 μl/min for 4 min. Then, loading 200 μl ligand (SotB/SotB variants) diluted by the activation buffer (sodium acetate, 10 mM, pH3.5) and ran for 4 min (20 μl/min). Then the sample ring was rinsed with HSB-EP buffer and emptied with air. Loading 200 μl 1 M ethanolamine (Sigma) blocking solution (20 μl/min, 4 min), rinsed the sample ring with HSB-EP buffer, and emptied the sample ring with air. Observing baseline for 5 min to ensure stability. The small molecules were diluted with PBS buffer (2 mM of KH2PO4, 10 mM of Na2HPO4, 2.7 mM of KCl, and 137 mM of NaCl at pH 7.4), and the concentration was shown in the experimental results. The flow rate for small molecules was performed at 20 μl/min. The binding time of small molecule and ligand was 240 s, and the dissociation was 240 s. The analysis software used for the experimental results was TraceDrawer, and the analysis method was one-to-one analysis model.

[2] = system: intact E. coli MG1655 strain; assay: Growth curve (L-arabinose inhibition / D-xylose competition) assay, intact MG1655; type: cell-based, Escherichia coli
Excerpt: In the process of sotB gene knockout, two plasmids were introduced into E. coli MG1655 strain: the plasmid pEcCas expressing Cas9 protein (kanamycin resistance) and the plasmid pEcgRNA/sotB expressing related gRNA (spectinomycin resistance). The pEcCas plasmid was successfully eliminated in this study. […] Thus, the sotB-deletion strain has resistance to spectinomycin. In order to carry out the related L-arabinose inhibition assay more strictly, the same plasmid (pEcgRNA/sotB) was then transformed into intact E. coli MG1655 cells, and the growth conditions of the two strains were measured as follows: The E. coli MG1655 cells (intact cells and sotB-deletion cells) were grown in liquid LB medium containing spectinomycin (50 μg/ml) at 37°C for overnight. The cells were then diluted to an OD600 value of 0.8 with liquid LB medium containing spectinomycin (50 μg/ml). Then, the cells were further diluted 1,000 times with liquid LB medium containing spectinomycin (50 μg/ml). The diluted cells were added to a 96-well plate (200 μl/well). Then, L-arabinose was added with final concentrations of 0 μM, 10 μM, 100 μM, 1 mM, 10 mM, and 100 mM, respectively. The 96-well plate was incubated at 37°C, and the OD600 value was measured every 1 h with a microplate reader. For the competition assay, the intact MG1655 cells diluted 1,000 times were divided into two parts and then added into 96-well plate (200 μl/well). One part was directly added with D-xylose at a final concentration of 0, 1, and 10 mM, respectively; the other part was first added with L-arabinose at a final concentration of 10 mM, then D-xylose was added with final concentrations of 0, 1, and 10 mM, respectively. The method of growth curve measurement is the same as above. All the experiments were repeated at least three times.

XlyE = target: XlyE; parameters: method as in Sun et al., 2012; details: ref Sun et al., 2012; read-out: Binding affinity between XlyE and its substrate; cited from earlier work
SotB [3] = target: T1, SotB; details: ref Koita and Rao, 2012; cited from earlier work
SotB E29A = target: T2, SotB E29A (Escherichia coli, UniProt P31122, E29A); assay: SPR affinity assay, SotB variant E29A; details: read-out: KD, binding affinity with E29A
T2 construct: The full-length sotB and lapC genes from the E. coli MG1655 genome were subcloned into the cloning vector pET28a; 8xHis (C); made in house; host or cells: E. coli C43(DE3)
T2 sequence (P31122 1-396 E29A): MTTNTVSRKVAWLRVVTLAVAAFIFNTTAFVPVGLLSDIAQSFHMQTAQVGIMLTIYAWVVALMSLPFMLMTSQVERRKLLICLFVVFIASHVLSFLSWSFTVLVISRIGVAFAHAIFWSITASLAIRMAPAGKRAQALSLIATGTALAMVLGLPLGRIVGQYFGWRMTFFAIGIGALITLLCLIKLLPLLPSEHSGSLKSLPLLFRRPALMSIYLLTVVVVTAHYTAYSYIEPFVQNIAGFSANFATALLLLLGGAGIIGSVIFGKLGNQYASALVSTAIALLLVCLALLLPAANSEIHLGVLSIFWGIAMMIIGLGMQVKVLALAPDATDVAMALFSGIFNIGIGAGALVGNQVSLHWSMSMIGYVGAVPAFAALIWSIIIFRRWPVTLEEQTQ
Protocol: as §1, with “The small molecules were diluted with PBS buffer (2 mM of KH2PO4, 10 mM of Na2HPO4, 2.7 mM of KCl, and 137 mM of NaCl at pH 7.4), and the concentration was shown in the experimental results. The flow rate for small molecules was performed at 20 μl/min. The binding time of small molecule and ligand was 240 s, and the dissociation was 240 s. The analysis software used for the experimental results was TraceDrawer, and the analysis method was one-to-one analysis model.” left out

SotB S339A = target: T3, SotB S339A (Escherichia coli, UniProt P31122, S339A); assay: SPR affinity assay, SotB variant S339A; details: read-out: KD, binding affinity with S339A
T3 construct: The full-length sotB and lapC genes from the E. coli MG1655 genome were subcloned into the cloning vector pET28a; 8xHis (C); made in house; host or cells: E. coli C43(DE3)
T3 sequence (P31122 1-396 S339A): T2 sequence (P31122 1-396 E29A) with A29E, S339A
Protocol: as §1, with “The small molecules were diluted with PBS buffer (2 mM of KH2PO4, 10 mM of Na2HPO4, 2.7 mM of KCl, and 137 mM of NaCl at pH 7.4), and the concentration was shown in the experimental results. The flow rate for small molecules was performed at 20 μl/min. The binding time of small molecule and ligand was 240 s, and the dissociation was 240 s. The analysis software used for the experimental results was TraceDrawer, and the analysis method was one-to-one analysis model.” left out

SotB W119A = target: T4, SotB W119A (Escherichia coli, UniProt P31122, W119A); assay: SPR affinity assay, SotB variant W119A; details: read-out: KD, binding affinity with W119A
T4 construct: The full-length sotB and lapC genes from the E. coli MG1655 genome were subcloned into the cloning vector pET28a; 8xHis (C); made in house; host or cells: E. coli C43(DE3)
T4 sequence (P31122 1-396 W119A): T2 sequence (P31122 1-396 E29A) with A29E, W119A
Protocol: as §1, with “The small molecules were diluted with PBS buffer (2 mM of KH2PO4, 10 mM of Na2HPO4, 2.7 mM of KCl, and 137 mM of NaCl at pH 7.4), and the concentration was shown in the experimental results. The flow rate for small molecules was performed at 20 μl/min. The binding time of small molecule and ligand was 240 s, and the dissociation was 240 s. The analysis software used for the experimental results was TraceDrawer, and the analysis method was one-to-one analysis model.” left out

SotB H115A = target: T5, SotB H115A (Escherichia coli, UniProt P31122, H115A); assay: SPR affinity assay, SotB variant H115A; type: binding; details: SotB variant H115A, read-out: KD, binding affinity with H115A
T5 construct: The full-length sotB and lapC genes from the E. coli MG1655 genome were subcloned into the cloning vector pET28a; 8xHis (C); made in house; host or cells: E. coli C43(DE3)
T5 sequence (P31122 1-396 H115A): T2 sequence (P31122 1-396 E29A) with A29E, H115A
Protocol: as §1

SotB N343A = target: T6, SotB N343A (Escherichia coli, UniProt P31122, N343A); assay: SPR affinity assay, SotB variant N343A; type: binding; details: SotB variant N343A, read-out: KD, binding affinity with N343A
T6 construct: The full-length sotB and lapC genes from the E. coli MG1655 genome were subcloned into the cloning vector pET28a; 8xHis (C); made in house; host or cells: E. coli C43(DE3)
T6 sequence (P31122 1-396 N343A): T2 sequence (P31122 1-396 E29A) with A29E, N343A
Protocol: as §1

FucP = target: FucP; parameters: method as in Dang et al., 2010; details: ref Dang et al., 2010; read-out: Binding affinity between FucP and the substrate; cited from earlier work
MelB = target: MelB; parameters: method as in Ethayathulla et al., 2014; details: ref Ethayathulla et al., 2014; read-out: Binding affinity between MelB and the substrate; cited from earlier work
SotB [4] = target: T1, SotB; assay: Cell based radiotracer uptake assay; details: E. coli C43(DE3), 0.1 μM tracer, 1 h, p < 0.01
Protocol: The cell-based uptake assay was performed with the following protocol. Plasmids pET28a and pET28a/sotB were transformed into E. coli C43(DE3) competent cells, respectively. Then, these two kinds of cells were grown in LB medium at 37°C and induced with 0.2 mM IPTG for 1 h, when the cell density reached an OD600 of about 1.5. Cells were then harvested by centrifugation. After being washed three times with MK buffer (150 mM KCl, 5 mM MES, pH 6.5), the cells were resuspended in the same buffer to an OD600 of 2.0. To measure the transport activity of SotB protein, took 5 ml of the above cell suspension, respectively, and added ^3H-L-arabinose (American Radiolabeled Chemicals) at a final concentration of 0.1 μM. All the reactions lasted 1 h and were stopped by diluting the cell suspension with 5 ml ice-cold MK buffer. Cells were then harvested by centrifugation. After being washed three times with ddH2O, the cells were resuspended in 5 ml ddH2O, respectively. Then the cells were added to the sample bottle, respectively, and mixed with the same volume of excess scintillation, and then taken for liquid scintillation counting. All the experiments were repeated at least three times.

[5] = SPR, wild-type SotB immobilised, one-to-one model, read-out: KD (equilibrium dissociation constant), binding affinity with SotB

For `O=C(N[C@H](CO)[C@H](O)c1ccc([N+](=O)[O-])cc1)C(Cl)Cl` [Chloramphenicol], the Kd (MdfA) is listed as 0.075 mM.
`O=C(CO)[C@@H](O)[C@H](O)[C@H](O)CO` [D-fructose] gave a Kd (SotB [1]) of 6.6 mM.
For `OC[C@H]1OC(O)[C@H](O)[C@@H](O)[C@@H]1O` (stereo partly drawn) [D-glucose], the Kd (SotB [1]; [5]) was 2.6 mM.
Compound `OC[C@H]1OC(O)[C@@H](O)[C@@H](O)[C@@H]1O` (stereo partly drawn) [D-mannose] has a Kd (SotB [1]; [5]) of 3.1 mM.
In the case of `O=C[C@H](O)[C@@H](O)[C@H](O)CO` [D-xylose], the “Effect on growth (OD600 growth curve)” value ([2]; intact MG1655, 1 mM D-xylose, without L-arabinose) is reported as “did not cause any growth inhibition”, the “Effect on growth (OD600 growth curve)” value ([2]; intact MG1655, 10 mM D-xylose in the presence of 10 mM L-arabinose) is reported as “inhibit the growth” and the “Effect on growth (OD600 growth curve)” value ([2]; intact MG1655, 10 mM D-xylose, without L-arabinose) is reported as “did not cause any growth inhibition”. The Kd (XlyE) was 0.35 mM, the “Transport by SotB” value (SotB [3]) was “cannot transport” and the “Binding affinity to SotB, fold higher than that of L-arabinose to SotB” value (SotB [1]; SPR, wild-type SotB) was 8.7 fold. It also gave a Kd (SotB [1]; [5]) of 0.47 mM.
`CC(C)S[C@@H]1O[C@H](CO)[C@H](O)[C@H](O)[C@H]1O` [IPTG, isopropyl-β-D-1-thiogalactopyranoside] showed a Kd (SotB E29A) of 7.6 mM, a Kd (SotB S339A) of 7.6 mM and a Kd (SotB W119A) of 6.7 mM. For the same compound, the Kd (SotB H115A) was 13.7 mM, the Kd (SotB N343A) was 15 mM and the “Binding affinity with SotB, fold lower than that of L-arabinose with SotB” value (SotB [1]; SPR, wild-type SotB) was about 2.5 fold. The Kd (SotB [1]; [5]) was 10.2 mM.
For `C[C@H](O)[C@@H](O)[C@@H](O)[C@H](O)C=O` [fucose], the Kd (FucP) is listed as 0.47 mM.
For `OC[C@H]1O[C@H](OCC2O[C@@H](O)[C@H](O)[C@@H](O)[C@@H]2O)[C@H](O)[C@@H](O)[C@H]1O` (stereo partly drawn) [melibiose], the Kd (MelB) is given as 1 mM.
In the case of ^3H-L-arabinose, the “Accumulation in cells expressing wild-type SotB relative to empty vector pET28a” value (SotB [4]) is reported as “significant reduced accumulation”.
